Test results as given in ChEMBL document CHEMBL1153372, “A selective matrix metalloprotease 12 inhibitor for potential treatment of chronic obstructive pulmonary disease (COPD): discovery of (S)-2-(8-(methoxycarbonylamino)dibenzo[b,d]furan-3-sulfonamido)-3-methylbutanoic acid (MMP408)” (J Med Chem, 2009).

Key:
Collagenase 3 = Collagenase 3 (Homo sapiens, UniProt P45452); assay: Inhibition of human recombinant MMP13 expressed in Escherichia coli
[1] = Volume of distribution at steady state in C57BL/6 mouse at 2 mg/kg, iv; format: ADME, organism-based; design: dose 2 mg/kg, route intravenous; settings: in vivo, read-out: Vdss
[2] = Cmax in C57BL/6 mouse at 30 mg/kg, po; format: ADME, organism-based; design: dose 30 mg/kg, route oral; settings: in vivo
[3] = AUC in C57BL/6 mouse at 30 mg/kg, po; format: ADME, organism-based; design: dose 30 mg/kg, route oral; settings: plasma
[4] = Oral bioavailability in C57BL/6 mouse at 30 mg/kg; format: ADME, organism-based; settings: in vivo
[5] = Clearance in C57BL/6 mouse at 2 mg/kg, iv; format: ADME, organism-based; design: dose 2 mg/kg, route intravenous; settings: in vivo
[6] = Half life in C57BL/6 mouse at 30 mg/kg, po; format: ADME, organism-based; design: dose 30 mg/kg, route oral; settings: in vivo
[7] = Metabolic stability in monkey liver microsomes; format: ADME, Macaca mulatta, Microsome; settings: rhesus monkey
[8] = molecular target: Voltage-gated inwardly rectifying potassium channel KCNH2 (Homo sapiens, UniProt Q12809); assay: Inhibition of human ERG channel
[9] = molecular target: Matrix metalloproteinase-14 (Homo sapiens, UniProt P50281); assay: Inhibition of human MMP14
Matrilysin = molecular target: T1, Matrilysin (Homo sapiens, UniProt P09237); assay: Inhibition of human MMP7
T1 sequence (P09237 whole entry): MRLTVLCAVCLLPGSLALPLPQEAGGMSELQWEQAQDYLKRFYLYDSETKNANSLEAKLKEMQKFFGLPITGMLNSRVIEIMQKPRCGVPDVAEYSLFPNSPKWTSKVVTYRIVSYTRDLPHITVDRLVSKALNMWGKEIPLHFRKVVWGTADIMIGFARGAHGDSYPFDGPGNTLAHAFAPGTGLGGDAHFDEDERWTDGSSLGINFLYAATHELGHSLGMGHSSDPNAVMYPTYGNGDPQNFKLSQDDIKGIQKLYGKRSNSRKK

Mus musculus [10] = assay: Inhibition of human recombinant MMP-12-induced lung inflammation in C57BL/6 mouse chronic obstructive pulmonary disease model assessed as inhibition of bronchoalveolar lavage fluid inflammation at 30 mg/kg, po qd; format: functional; settings: C57BL/6, Lung
[11] = molecular target: T2, A disintegrin and metalloproteinase with thrombospondin motifs 5 (Homo sapiens, UniProt Q9UNA0); assay: Inhibition of human Aggrecanase-2
T2 sequence (Q9UNA0 whole entry): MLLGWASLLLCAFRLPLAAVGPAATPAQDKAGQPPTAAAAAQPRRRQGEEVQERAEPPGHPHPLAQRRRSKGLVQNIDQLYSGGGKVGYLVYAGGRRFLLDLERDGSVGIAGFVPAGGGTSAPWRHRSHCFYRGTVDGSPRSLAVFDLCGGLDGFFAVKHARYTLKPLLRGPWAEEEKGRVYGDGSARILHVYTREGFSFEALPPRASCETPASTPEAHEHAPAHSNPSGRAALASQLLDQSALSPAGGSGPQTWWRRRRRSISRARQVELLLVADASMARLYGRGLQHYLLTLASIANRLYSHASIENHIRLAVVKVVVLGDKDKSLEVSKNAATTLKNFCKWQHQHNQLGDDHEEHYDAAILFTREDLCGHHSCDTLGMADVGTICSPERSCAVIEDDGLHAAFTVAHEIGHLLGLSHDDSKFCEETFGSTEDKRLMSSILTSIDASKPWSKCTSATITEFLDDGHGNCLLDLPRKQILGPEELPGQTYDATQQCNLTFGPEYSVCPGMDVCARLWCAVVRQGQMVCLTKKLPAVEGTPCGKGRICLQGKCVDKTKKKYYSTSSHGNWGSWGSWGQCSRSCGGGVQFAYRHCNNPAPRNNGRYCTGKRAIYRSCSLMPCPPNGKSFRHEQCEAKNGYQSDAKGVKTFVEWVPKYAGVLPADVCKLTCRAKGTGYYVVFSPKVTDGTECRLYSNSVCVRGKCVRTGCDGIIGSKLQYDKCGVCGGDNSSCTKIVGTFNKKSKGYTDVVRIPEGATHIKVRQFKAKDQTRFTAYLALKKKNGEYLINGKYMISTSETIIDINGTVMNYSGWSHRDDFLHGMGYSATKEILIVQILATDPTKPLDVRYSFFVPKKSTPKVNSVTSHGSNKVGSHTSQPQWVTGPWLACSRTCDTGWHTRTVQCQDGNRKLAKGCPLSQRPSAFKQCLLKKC

[12] = Metabolic stability in rat liver microsomes; format: ADME, Microsome
[13] = Inhibition of sheep MMP12; design: species or system Ovis aries
[14] = molecular target: Macrophage metalloelastase (Rattus norvegicus, UniProt Q63341)
Mus musculus [15] = assay: Inhibition of human recombinant MMP-12-induced lung inflammation in po dosed C57BL/6 mouse chronic obstructive pulmonary disease model assessed as inhibition of lung inflammation dosed twice daily; format: functional; settings: C57BL/6, po, read-out: MED
[16] = Metabolic stability in human liver microsomes; format: ADME, Microsome
[17] = Metabolic stability in mouse liver microsomes; format: ADME, Microsome
[18] = molecular target: T3, A disintegrin and metalloproteinase with thrombospondin motifs 4 (Homo sapiens, UniProt O75173); assay: Inhibition of human Aggrecanase-1
T3 sequence (O75173 whole entry): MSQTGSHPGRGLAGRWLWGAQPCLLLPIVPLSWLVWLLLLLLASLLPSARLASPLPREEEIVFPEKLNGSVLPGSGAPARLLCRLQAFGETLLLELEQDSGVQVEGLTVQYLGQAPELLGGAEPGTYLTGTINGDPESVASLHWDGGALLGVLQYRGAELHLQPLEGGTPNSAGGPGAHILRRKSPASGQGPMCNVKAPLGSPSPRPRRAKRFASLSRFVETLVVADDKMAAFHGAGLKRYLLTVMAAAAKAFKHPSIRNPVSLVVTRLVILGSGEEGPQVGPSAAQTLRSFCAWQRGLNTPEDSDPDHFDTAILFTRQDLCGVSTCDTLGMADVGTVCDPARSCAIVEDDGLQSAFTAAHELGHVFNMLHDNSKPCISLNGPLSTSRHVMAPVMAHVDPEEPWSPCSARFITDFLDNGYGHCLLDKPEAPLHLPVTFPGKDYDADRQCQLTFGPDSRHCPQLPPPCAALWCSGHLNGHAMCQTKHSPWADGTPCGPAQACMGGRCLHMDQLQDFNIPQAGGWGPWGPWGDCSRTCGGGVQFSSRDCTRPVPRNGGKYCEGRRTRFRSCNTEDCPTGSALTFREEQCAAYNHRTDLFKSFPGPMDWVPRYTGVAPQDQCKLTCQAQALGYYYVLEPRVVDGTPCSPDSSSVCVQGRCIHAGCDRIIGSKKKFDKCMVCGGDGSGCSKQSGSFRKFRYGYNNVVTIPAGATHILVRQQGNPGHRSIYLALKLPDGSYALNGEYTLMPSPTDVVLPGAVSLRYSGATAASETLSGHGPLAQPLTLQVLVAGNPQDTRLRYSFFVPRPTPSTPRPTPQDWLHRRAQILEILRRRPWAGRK

[19] = molecular target: Macrophage metalloelastase (Mus musculus, UniProt P34960); assay: Inhibition of mouse recombinant MMP12
Interstitial collagenase = molecular target: T4, Interstitial collagenase (Homo sapiens, UniProt P03956); assay: Inhibition of human MMP1
T4 sequence (P03956 whole entry): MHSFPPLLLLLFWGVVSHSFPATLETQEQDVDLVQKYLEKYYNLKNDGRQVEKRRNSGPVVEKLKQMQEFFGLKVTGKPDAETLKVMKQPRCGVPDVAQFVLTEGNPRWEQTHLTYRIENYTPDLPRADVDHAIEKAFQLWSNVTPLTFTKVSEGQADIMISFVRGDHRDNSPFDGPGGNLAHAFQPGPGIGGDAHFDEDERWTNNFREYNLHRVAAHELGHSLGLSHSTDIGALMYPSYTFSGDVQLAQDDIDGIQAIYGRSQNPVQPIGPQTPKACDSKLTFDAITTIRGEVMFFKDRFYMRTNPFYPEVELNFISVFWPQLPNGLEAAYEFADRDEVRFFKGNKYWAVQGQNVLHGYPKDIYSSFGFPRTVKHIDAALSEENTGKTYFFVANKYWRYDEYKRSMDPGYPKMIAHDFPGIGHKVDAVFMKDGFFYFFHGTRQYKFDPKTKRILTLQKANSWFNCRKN

[20] = molecular target: Matrix metalloproteinase-9 (Homo sapiens, UniProt P14780); assay: Inhibition of human MMP9
Stromelysin-1 = Stromelysin-1 (Homo sapiens, UniProt P08254); assay: Inhibition of human MMP3
Mus musculus [21] = assay: Inhibition of human recombinant MMP-12-induced lung inflammation in C57BL/6 mouse chronic obstructive pulmonary disease model assessed as inhibition of bronchoalveolar lavage fluid macrophage level at 30 mg/kg, po qd; format: functional; settings: C57BL/6, Lung
[22] = Metabolic stability in dog liver microsomes; format: ADME, Canis lupus familiaris, Microsome

Macrophage metalloelastase (Rattus norvegicus, UniProt Q63341), sequence (Q63341 whole entry): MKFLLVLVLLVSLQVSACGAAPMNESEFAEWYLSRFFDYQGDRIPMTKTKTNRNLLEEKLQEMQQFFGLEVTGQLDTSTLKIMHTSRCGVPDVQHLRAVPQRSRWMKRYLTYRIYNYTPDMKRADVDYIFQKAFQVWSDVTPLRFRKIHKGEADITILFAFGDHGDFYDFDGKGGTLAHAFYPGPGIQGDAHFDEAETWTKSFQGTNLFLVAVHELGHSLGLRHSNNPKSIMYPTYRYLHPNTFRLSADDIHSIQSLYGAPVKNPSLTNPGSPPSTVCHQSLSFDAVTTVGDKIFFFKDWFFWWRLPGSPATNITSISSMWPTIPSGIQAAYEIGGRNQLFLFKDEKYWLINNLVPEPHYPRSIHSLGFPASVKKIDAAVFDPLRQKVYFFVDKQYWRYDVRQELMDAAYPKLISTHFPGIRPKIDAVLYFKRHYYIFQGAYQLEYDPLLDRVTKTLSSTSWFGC
Matrix metalloproteinase-9, sequence (P14780 whole entry): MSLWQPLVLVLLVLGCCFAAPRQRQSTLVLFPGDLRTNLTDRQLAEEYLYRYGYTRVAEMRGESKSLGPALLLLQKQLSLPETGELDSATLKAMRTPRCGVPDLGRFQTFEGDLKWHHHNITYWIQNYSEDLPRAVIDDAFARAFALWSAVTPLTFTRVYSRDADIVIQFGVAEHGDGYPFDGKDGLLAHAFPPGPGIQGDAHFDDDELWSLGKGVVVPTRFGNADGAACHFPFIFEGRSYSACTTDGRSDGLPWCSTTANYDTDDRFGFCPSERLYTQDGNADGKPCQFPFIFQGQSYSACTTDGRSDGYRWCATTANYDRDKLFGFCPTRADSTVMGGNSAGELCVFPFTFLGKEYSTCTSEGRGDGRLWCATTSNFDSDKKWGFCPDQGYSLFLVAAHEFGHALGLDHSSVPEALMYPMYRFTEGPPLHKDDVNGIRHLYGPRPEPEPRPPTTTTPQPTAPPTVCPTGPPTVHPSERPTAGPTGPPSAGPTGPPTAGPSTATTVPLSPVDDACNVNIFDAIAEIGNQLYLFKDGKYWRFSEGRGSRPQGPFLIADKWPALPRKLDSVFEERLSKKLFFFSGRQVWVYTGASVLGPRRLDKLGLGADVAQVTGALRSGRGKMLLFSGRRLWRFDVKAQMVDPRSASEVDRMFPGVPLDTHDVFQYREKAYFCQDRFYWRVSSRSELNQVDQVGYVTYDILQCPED
Macrophage metalloelastase (Mus musculus, UniProt P34960), sequence (P34960 whole entry): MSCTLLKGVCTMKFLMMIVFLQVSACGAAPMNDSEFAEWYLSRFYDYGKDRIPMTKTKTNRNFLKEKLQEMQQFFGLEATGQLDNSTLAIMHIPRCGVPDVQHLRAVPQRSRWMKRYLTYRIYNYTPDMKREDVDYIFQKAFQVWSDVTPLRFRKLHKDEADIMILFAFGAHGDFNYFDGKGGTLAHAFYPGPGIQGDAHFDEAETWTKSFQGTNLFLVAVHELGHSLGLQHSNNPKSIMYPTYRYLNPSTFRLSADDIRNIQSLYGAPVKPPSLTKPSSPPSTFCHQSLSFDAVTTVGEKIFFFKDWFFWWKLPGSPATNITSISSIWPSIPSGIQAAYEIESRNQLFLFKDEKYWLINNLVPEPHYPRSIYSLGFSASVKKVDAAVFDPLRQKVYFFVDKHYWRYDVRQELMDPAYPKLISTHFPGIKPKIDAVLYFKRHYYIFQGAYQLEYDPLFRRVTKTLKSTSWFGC
Stromelysin-1, sequence (P08254 whole entry): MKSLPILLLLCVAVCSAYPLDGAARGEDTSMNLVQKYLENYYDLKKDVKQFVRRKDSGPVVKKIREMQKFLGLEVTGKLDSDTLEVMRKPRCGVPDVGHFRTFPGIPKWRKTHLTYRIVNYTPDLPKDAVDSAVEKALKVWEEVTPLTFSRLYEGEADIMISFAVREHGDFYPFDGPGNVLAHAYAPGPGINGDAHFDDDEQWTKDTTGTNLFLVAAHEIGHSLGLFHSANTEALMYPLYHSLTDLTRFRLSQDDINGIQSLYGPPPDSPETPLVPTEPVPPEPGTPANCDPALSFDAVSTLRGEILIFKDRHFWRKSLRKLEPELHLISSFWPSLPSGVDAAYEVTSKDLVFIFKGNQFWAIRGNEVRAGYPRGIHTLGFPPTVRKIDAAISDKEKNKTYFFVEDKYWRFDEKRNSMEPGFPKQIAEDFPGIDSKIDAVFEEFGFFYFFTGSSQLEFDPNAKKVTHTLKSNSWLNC
Voltage-gated inwardly rectifying potassium channel KCNH2, sequence (Q12809 whole entry): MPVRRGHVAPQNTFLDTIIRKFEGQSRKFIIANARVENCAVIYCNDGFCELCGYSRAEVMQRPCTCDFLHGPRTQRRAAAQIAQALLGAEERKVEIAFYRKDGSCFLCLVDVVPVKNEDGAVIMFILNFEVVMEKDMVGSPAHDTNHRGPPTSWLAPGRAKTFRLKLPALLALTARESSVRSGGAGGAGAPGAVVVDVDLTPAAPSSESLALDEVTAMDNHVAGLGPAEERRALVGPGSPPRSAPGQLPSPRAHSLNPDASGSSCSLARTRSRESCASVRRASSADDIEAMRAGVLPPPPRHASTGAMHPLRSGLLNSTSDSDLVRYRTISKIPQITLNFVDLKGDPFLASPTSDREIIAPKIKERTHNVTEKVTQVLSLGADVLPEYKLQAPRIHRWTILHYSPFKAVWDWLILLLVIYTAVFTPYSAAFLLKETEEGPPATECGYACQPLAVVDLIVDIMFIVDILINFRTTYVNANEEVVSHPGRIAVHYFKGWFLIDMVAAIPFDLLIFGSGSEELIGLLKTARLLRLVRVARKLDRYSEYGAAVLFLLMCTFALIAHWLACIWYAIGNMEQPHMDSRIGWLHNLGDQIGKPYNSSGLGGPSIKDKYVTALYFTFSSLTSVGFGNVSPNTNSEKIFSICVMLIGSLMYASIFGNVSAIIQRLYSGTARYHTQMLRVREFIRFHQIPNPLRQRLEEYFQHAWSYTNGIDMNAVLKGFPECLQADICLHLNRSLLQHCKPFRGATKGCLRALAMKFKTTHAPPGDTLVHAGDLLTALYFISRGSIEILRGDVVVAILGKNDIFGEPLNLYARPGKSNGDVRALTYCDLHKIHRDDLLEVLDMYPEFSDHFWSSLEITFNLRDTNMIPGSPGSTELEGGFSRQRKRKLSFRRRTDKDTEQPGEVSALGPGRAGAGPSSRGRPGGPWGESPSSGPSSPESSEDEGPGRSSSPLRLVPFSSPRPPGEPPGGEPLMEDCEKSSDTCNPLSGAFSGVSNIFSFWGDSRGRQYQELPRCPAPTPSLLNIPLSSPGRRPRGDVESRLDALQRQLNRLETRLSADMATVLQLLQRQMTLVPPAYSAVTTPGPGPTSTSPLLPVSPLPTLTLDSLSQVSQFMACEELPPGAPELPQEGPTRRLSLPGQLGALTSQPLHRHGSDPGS

## CC(C)[C@@H](NS(=O)(=O)c1ccc2oc3ccccc3c2c1)C(=O)O
Collagenase 3
  IC50: 2500 nM

## CC(C)[C@H](NS(=O)(=O)c1ccc2c(c1)oc1ccc(NC(=O)Oc3ccc(F)cc3)cc12)C(=O)O
Collagenase 3
  IC50: 200 nM

## CC(C)[C@@H](NS(=O)(=O)c1ccc2oc3cc(NS(=O)(=O)c4ccccc4)ccc3c2c1)C(=O)O
Collagenase 3
  IC50: 6000 nM

## CC(C)[C@H](NS(=O)(=O)c1ccc2c(c1)oc1cc(NC(=O)Oc3ccc(F)cc3)ccc12)C(=O)O
Collagenase 3
  IC50: 361 nM

## CCCOC(=O)Nc1ccc2c(c1)oc1ccc(S(=O)(=O)N[C@@H](C(=O)O)C(C)C)cc12
Collagenase 3
  IC50: 109 nM

## CC(C)[C@H](NS(=O)(=O)c1ccc2c(c1)oc1ccc(NC(=O)Oc3ccccc3)cc12)C(=O)O
Collagenase 3
  IC50: 220 nM

## CC(C)[C@H](NS(=O)(=O)c1ccc2c(c1)oc1ccc(NC(=O)OCCF)cc12)C(=O)O
Collagenase 3
  IC50: 10 nM

## CC(C)OC(=O)Nc1ccc2c(c1)oc1ccc(S(=O)(=O)N[C@@H](C(=O)O)C(C)C)cc12
Collagenase 3
  IC50: 500 nM

## CC(C)[C@H](NS(=O)(=O)c1ccc2c(c1)oc1ccc(NC(=O)Oc3ccccc3Cl)cc12)C(=O)O
Collagenase 3
  IC50: 180 nM

## COC(=O)Nc1ccc2c(c1)oc1ccc(S(=O)(=O)N[C@@H](C(=O)O)C(C)C)cc12
[1]
  Vd: 1.6 L/kg
[2]
  Cmax: 10600 ng/mL
[3]
  AUC: 21700 ng·h/mL
[4]
  bioavailability: 36%
Collagenase 3
  IC50: 500 nM
[5]
  clearance: 8.3 mL/min/kg
[6]
  half-life: 162 min

## COC(=O)Nc1cc2oc3ccc(S(=O)(=O)N[C@@H](C(=O)O)C(C)C)cc3c2cc1Br
Collagenase 3
  IC50: 25400 nM

## CC(C)[C@@H](NS(=O)(=O)c1ccc2oc3cc(NS(C)(=O)=O)ccc3c2c1)C(=O)O
[1]
  Vd: 1.9 L/kg
[2]
  Cmax: 103 ng/mL
[3]
  AUC: 245 ng·h/mL
[4]
  bioavailability: 7%
[5]
  clearance: 141 mL/min/kg
[6]
  half-life: 120 min

## CC(C)[C@H](NS(=O)(=O)c1ccc2c(c1)oc1ccc(NC(=O)Nc3ccsc3)cc12)C(=O)O
Collagenase 3
  IC50: 3.3 nM

## COC(=O)Nc1ccc2oc3cc(S(=O)(=O)N[C@H](C(=O)O)C(C)C)ccc3c2c1
[7]
  half-life: > 60 min
[8]
  Activity: Not Active
[1]
  Vd: 1.9 L/kg
[2]
  Cmax: 3080 ng/mL
[3]
  AUC: 7480 ng·h/mL
[9]
  IC50: 1100 nM
Matrilysin
  IC50: > 22 µM
Mus musculus [10]
  inhibition in vivo at 30 mg/kg: > 50%
[11]
  IC50: > 10 µM
[4]
  bioavailability: 27%
[12]
  half-life: > 60 min
Collagenase 3
  IC50: 120 nM
[13]
  IC50: 22.3 nM
[14]
  IC50: 320 nM
Mus musculus [15]
  minimal effective dose: 5 mg/kg
[5]
  clearance: 17.2 mL/min/kg
[6]
  half-life: 180 min
[16]
  half-life: > 60 min
[17]
  half-life: > 60 min
[18]
  IC50: > 5 µM
[19]
  IC50: 160 nM
Interstitial collagenase
  IC50: > 6 µM
[20]
  IC50: 1300 nM
Stromelysin-1
  IC50: 351 nM
Mus musculus [21]
  inhibition in vivo at 30 mg/kg: > 70%
[22]
  half-life: > 60 min

## CC(C)[C@@H](NS(=O)(=O)c1ccc2oc3cc(NC(=O)Oc4ccccc4)ccc3c2c1)C(=O)O
Collagenase 3
  IC50: 600 nM
